Results: patent publication US10106536B2, “Imidazo(4,5-B) pyridin-2-yl amides as KV7 channel activators” (Knopp Biosciences LLC, priority 2013, dated 2018)

target: T1, Kv7.2/7.3 (Homo sapiens, UniProt O43525+O43526); experiment: Kv7.2/7.3 activation assay, QPatch planar patch-clamp, single concentration screen; format: cell-based; conditions: compound 3 μM; Kv7.2/Kv7.3 co-expressing HEK cells; steady-state current at end of 1 s pulse to −30 mV
T1 construct: host or cells: HEK cells, tetracycline-inducible expression
Method: Kv7.2/7.3 Activation Assay
The ability of compounds to potentiate K-currents in KV7.2/7.3 containing HEK cells was assessed using planar patch-clamp on the QPatch automated screening platform.
The hKV7.2/7.3 cell line was obtained from Chantest (Cleveland, Ohio 44128) cat.# CT6147. These HEK cells will express the Kv7.2/7.3 ion channels when induced.
Cell Culture: Cells were maintained in a media containing DMEM/F12; 50/50 (GIBCO cat.#11330), 10% Fetal Bovine Serum (FBS) (GIBCO cat.#26140), 100 units/mL Penicillin-Streptomycin (GIBCO cat.#15140), 0.005 mg/mL Blasticidin (INVIVOGEN cat.# ant-bl-1), 0.5 mg/mL Geneticin (GIBCO cat.#10131), 0.1 mg/mL Zeocin (GIBCO cat.# R25001). Cells used in the electrophysiology assay were maintained in a media without Blasticidin, Geneticin and Zeocin for 2 days and channel expression was induced by adding tetracycline (BIOLINE cat.# BIO-87030) at a final concentration of […]. Cells were grown in T-175 flask to ˜75% confluency. Currents were recorded 24 hours after channel induction.
Test compounds were prepared by performing serial dilutions on a Biomek NX^P (BECKMAN COULTER). Final dilutions were made in external recording solution with a final DMSO concentration of 0.1% DMSO. For single concentration screens each plate had 10 μM retigabine as a positive control and 0.1% DMSO as a negative control.
On the day of the experiment cells were washed with Hank's Balanced Salt Solution (HBBS) (GIBCO cat.#14175) and harvested with Tryple (GIBCO cat.#12604). Cells were then centrifuged at 2000 rpm for 5 minutes and resuspended in CHO-S-SFM (GIBCO cat.#12052) at ˜3×10^6 cells/mL. Cells were stirred for 30 minutes before experiments were started. External recording solution contained (in mM): NaCl (145), KCl (4), CaCl2 (2), MgCl2 (1), HEPES (10) and Glucose (10); pH was adjusted to 7.4 with NaOH and the osmolarity was adjusted to 300-305 mOsM with sucrose if necessary. Internal solution contained (in mM): KCl (125), KF (10), EGTA (5), Na2ATP (5), MgCl2 (3.2), HEPES (5); pH was adjusted to 7.2 with KOH and the osmolarity was adjusted to 298-302 mOsM with sucrose.
Potassium channel activity was measured on the QPatch HTX (Sophion Bioscience) using QPlates with 48-wells/plate. Each cell was taken as an independent experiment and only one compound was tested per well. Potassium channel activity was elicited by holding at −80 mV and stepping to −30 mV for 1 s followed by a 100 ms pulse to −120 mV.
Baseline conditions were obtained by recording 5 sweeps in the external solution only, this was repeated for three applications of the external solution. The effect of test compounds on elicited current was then assessed by recording 5 sweeps in the presence of a 3 μM or 10 μM compound solution. The steady-state current at the end of the 1 s pulse to −30 mV was measured to determine the fold increase from baseline.

SMILES | Kv7.2/7.3 Activity at 3 μM (increase in current over baseline)
CC(C)(C)OCCC(=O)Nc1nc2ccc(C3CC3)nc2n1CC(F)(F)F [Example 108, 3-(tert-butoxy)-N-(5-cyclopropyl-3-(2,2,2-trifluoroethyl)-3H-imidazo[4,5-b]pyridin-2-yl)propanamide] | +++ (>6-fold increase over baseline (+++))
O=C(CC(C(F)(F)F)C(F)(F)F)Nc1nc2ccc(Cl)nc2n1C1CCC1 [Example 6, N-(5-chloro-3-cyclobutyl-3H-imidazo[4,5-b]pyridin-2-yl)-4,4,4-trifluoro-3-(trifluoromethyl)butanamide] | − (<1.2-fold increase over baseline (−))
CC1(C)[C@H]2CC[C@@H](CC(=O)Nc3nc4cccnc4n3C3CCC3)[C@@H]1C2 [Example 24, N-(3-cyclobutyl-3H-imidazo[4,5-b]pyridin-2-yl)-2-((1S,2S,5S)-6,6-dimethylbicyclo[3.1.1]heptan-2-yl)acetamide] | +++ (>6-fold increase over baseline (+++))
O=C(Cc1ccc(F)cc1)Nc1nc2cc(Cl)cnc2n1C1CCC1 [Example 58, N-(6-chloro-3-cyclobutyl-3H-imidazo[4,5-b]pyridin-2-yl)-2-(4-fluorophenyl)acetamide] | − (<1.2-fold increase over baseline (−))
O=C(CCC1(C(F)(F)F)CC1)Nc1nc2ccc(Cl)nc2n1C1CCC1 [Example 223, N-(5-chloro-3-cyclobutyl-3H-imidazo[4,5-b]pyridin-2-yl)-3-(1-(trifluoromethyl)cyclopropyl)propanamide] | − (<1.2-fold increase over baseline (−))
CC(C)(C)CC(=O)Nc1nc2ccc(-c3cccnc3)nc2n1C1CCC1.Cl [Example 151, N-(3-cyclobutyl-5-(pyridin-3-yl)-3H-imidazo[4,5-b]pyridin-2-yl)-3,3-dimethylbutanamide hydrochloride] | − (<1.2-fold increase over baseline (−))

same assay, conditions: compound 10 μM; Kv7.2/Kv7.3 co-expressing HEK cells; steady-state current at end of 1 s pulse to −30 mV

SMILES | Kv7.2/7.3 Activity at 10 μM (increase in current over baseline)
CC(C)CC(=O)Nc1nc2ccc(C(F)(F)F)nc2n1C1CCC1 [Example 42, N-(3-cyclobutyl-5-(trifluoromethyl)-3H-imidazo[4,5-b]pyridin-2-yl)-3-methylbutanamide] | +++ (>6-fold increase over baseline (+++))
CC1(C)CCC(CC(=O)Nc2nc3ccc(C(F)(F)F)nc3n2C2CCC2)O1 (centres unmarked) [Example 96, N-(3-cyclobutyl-5-(trifluoromethyl)-3H-imidazo[4,5-b]pyridin-2-yl)-2-(5,5-dimethyltetrahydrofuran-2-yl)acetamide] | +++ (>6-fold increase over baseline (+++))
CC(C)Oc1ccc2nc(NC(=O)CCOC(C)(C)C)n(CC(F)(F)F)c2n1 [Example 120, 3-(tert-butoxy)-N-(5-isopropoxy-3-(2,2,2-trifluoroethyl)-3H-imidazo[4,5-b]pyridin-2-yl)propanamide] | +++ (>6-fold increase over baseline (+++))
CC1(C)[C@H]2CC[C@@H](CC(=O)Nc3nc4ccc(Cl)nc4n3C3CCC3)[C@@H]1C2 [Example 33, N-(5-chloro-3-cyclobutyl-3H-imidazo[4,5-b]pyridin-2-yl)-2-((1S,2S,5S)-6,6-dimethylbicyclo[3.1.1]heptan-2-yl)acetamide] | +++ (>6-fold increase over baseline (+++))
CC1(C)[C@H]2CC[C@@H](CC(=O)Nc3nc4cccnc4n3C3CCC3)[C@@H]1C2 [Example 24, N-(3-cyclobutyl-3H-imidazo[4,5-b]pyridin-2-yl)-2-((1S,2S,5S)-6,6-dimethylbicyclo[3.1.1]heptan-2-yl)acetamide] | +++ (>6-fold increase over baseline (+++))
CC(C)CC(=O)Nc1nc2ccc(Cl)nc2n1C1CCC1 [Example 28, N-(5-chloro-3-cyclobutyl-3H-imidazo[4,5-b]pyridin-2-yl)-3-methylbutanamide] | +++ (>6-fold increase over baseline (+++))
CC(C)(C)CC(=O)Nc1nc2ccc(Cl)nc2n1-c1ccc(F)cc1 [Example 105, N-(5-chloro-3-(4-fluorophenyl)-3H-imidazo[4,5-b]pyridin-2-yl)-3,3-dimethylbutanamide] | +++ (>6-fold increase over baseline (+++))
CC(C)(C)CC(=O)Nc1nc2ccc(C(F)(F)F)nc2n1C1CCC1 [Example 39, N-(3-cyclobutyl-5-(trifluoromethyl)-3H-imidazo[4,5-b]pyridin-2-yl)-3,3-dimethylbutanamide] | +++ (>6-fold increase over baseline (+++))
O=C(CC1CC2CCC1C2)Nc1nc2ccc(Cl)nc2n1C1CCC1 (centres unmarked) [Example 9, 2-(bicyclo[2.2.1]heptan-2-yl)-N-(5-chloro-3-cyclobutyl-3H-imidazo[4,5-b]pyridin-2-yl)acetamide] | +++ (>6-fold increase over baseline (+++))
CC1(C)[C@H]2CC[C@@H](CC(=O)Nc3nc4ccc(C(F)(F)F)nc4n3C3CCC3)[C@@H]1C2 [Example 47, N-(3-cyclobutyl-5-(trifluoromethyl)-3H-imidazo[4,5-b]pyridin-2-yl)-2-((1S,2S,5S)-6,6-dimethylbicyclo[3.1.1]heptan-2-yl)acetamide] | +++ (>6-fold increase over baseline (+++))
O=C(CCC1CCOC1)Nc1nc2ccc(C(F)(F)F)nc2n1C1CCC1 (centres unmarked) [Example 124, N-(3-cyclobutyl-5-(trifluoromethyl)-3H-imidazo[4,5-b]pyridin-2-yl)-3-(tetrahydrofuran-3-yl)propanamide] | +++ (>6-fold increase over baseline (+++))
O=C(CCc1ccccc1)Nc1nc2ccc(Cl)nc2n1C1CCC1 [Example 35, N-(5-chloro-3-cyclobutyl-3H-imidazo[4,5-b]pyridin-2-yl)-3-phenylpropanamide] | +++ (>6-fold increase over baseline (+++))
CCOCC(=O)Nc1nc2ccc(Cl)nc2n1C1CCC1 [Example 34, N-(5-chloro-3-cyclobutyl-3H-imidazo[4,5-b]pyridin-2-yl)-2-ethoxyacetamide] | − (<1.2-fold increase over baseline (−))
CC(C)(C)OCCC(=O)Nc1nc2cccnc2n1C1CCC1 [Example 3, 3-(tert-butoxy)-N-(3-cyclobutyl-3H-imidazo[4,5-b]pyridin-2-yl)propanamide] | +++ (>6-fold increase over baseline (+++))
O=C(CCC1CCCC1)Nc1nc2ccc(Cl)nc2n1C1CCC1 [Example 27, N-(5-chloro-3-cyclobutyl-3H-imidazo[4,5-b]pyridin-2-yl)-3-cyclopentylpropanamide] | +++ (>6-fold increase over baseline (+++))
O=C(CC1CCCCC1)Nc1nc2ccc(Cl)nc2n1C1CCC1 [Example 29, N-(5-chloro-3-cyclobutyl-3H-imidazo[4,5-b]pyridin-2-yl)-2-cyclohexylacetamide] | +++ (>6-fold increase over baseline (+++))
O=C(CCOC1CCCC1)Nc1nc2ccc(C(F)(F)F)nc2n1C1CCC1 [Example 91, N-(3-cyclobutyl-5-(trifluoromethyl)-3H-imidazo[4,5-b]pyridin-2-yl)-3-(cyclopentyloxy)propanamide] | +++ (>6-fold increase over baseline (+++))
O=C(CC1CCCCC1)Nc1nc2ccc(C(F)(F)F)nc2n1C1CCC1 [Example 43, N-(3-cyclobutyl-5-(trifluoromethyl)-3H-imidazo[4,5-b]pyridin-2-yl)-2-cyclohexylacetamide] | +++ (>6-fold increase over baseline (+++))
Cc1ccc2nc(NC(=O)CCOC(C)(C)C)n(CC(F)(F)F)c2n1 [Example 132, 3-(tert-butoxy)-N-(5-methyl-3-(2,2,2-trifluoroethyl)-3H-imidazo[4,5-b]pyridin-2-yl)propanamide] | +++ (>6-fold increase over baseline (+++))
CC(C)Cn1c(NC(=O)CC(C)(C)C)nc2ccc(Cl)nc21 [Example 36, N-(5-chloro-3-isobutyl-3H-imidazo[4,5-b]pyridin-2-yl)-3,3-dimethylbutanamide] | +++ (>6-fold increase over baseline (+++))
